Data taken from paper PMC12181260, “Design and synthesis of novel pyridopyrimidine moieties linked to coumarin ring of potentially active cytotoxic agents and their docking study” (Scientific Reports, 2025).
In brackets after ≈: the same amount, converted by molar mass.

Experiments:
[1] = tested on: VERO; assay: Cytotoxicity (anticancer screening) on VERO; type: cell-based; details: Chlorocebus sabaeus, normal adult African green monkey kidney cell line, 72 h of incubation
Text: (§1) Keeping the aforementioned details in mind, the objective of this study was to synthesize new pharmaceuticals for anticancer assessment as a trial to produce newer antitumor drugs with increased activity and minimal adverse effects. Human hepatocellular liver carcinoma cell line (HepG2), human lung fibroblast cell line (WI-38), human breast adenocarcinoma cell line (MCF-7), and normal adult African green monkey kidney cell line (VERO) were the four different types of […] cell lines used to test the anticancer activity of all newly synthesized compounds (Fig. 5).
(§2) It was carried out according to the previously reported work[48].

[2] = tested on: MCF-7; assay: Cytotoxicity (anticancer screening) on MCF-7; type: cell-based, human; details: for IC50: MCF7, human breast adenocarcinoma cell line, 72 h of incubation; for activity class against MCF-7: SAR statement, four tested cell lines
Text: as §1, §2

[3] = tested on: WI-38; assay: Cytotoxicity (anticancer screening) on WI-38; type: cell-based, human; details: for IC50: WI-38, human lung fibroblast cell line, 72 h of incubation; for activity class against WI-38: SAR statement, four tested cell lines
Text: as §1, §2

[4] = tested on: HepG2; assay: Cytotoxicity (anticancer screening) on HepG2; type: cell-based, human; details: for IC50: HepG2, human hepatocellular liver carcinoma cell line, 72 h of incubation; for activity class against HepG2: SAR statement, four tested cell lines
Text: as §1, §2

| SMILES | IC50 [1] [µg/mL] | IC50 [2] [µg/mL] | IC50 [3] [µg/mL] | IC50 [4] [µg/mL] | activity class against MCF-7 [2] | activity class against WI-38 [3] | activity class against HepG2 [4] |
| --- | --- | --- | --- | --- | --- | --- | --- |
| Cc1cc(=O)oc2c3c(ccc12)NC(=O)C1=C(N)OC2=C(CCC2)C13 (centres unmarked) [Compound 13, 2-Amino-7-methyl-10c,11,12,13-tetrahydro-3 H-cyclopenta[5,6]pyrano[3,4-c]pyrano[2,3-f]quinoline-3,9(4 H)-dione] | 58.2 ± 1.05 (≈ 173 µM) | 53 ± 0.19 (≈ 158 µM) | 56 ± 1.14 (≈ 166 µM) | 45.2 ± 1.13 (≈ 134 µM) | – | – | – |
| Cc1cc(=O)oc2c3c(ccc12)Oc1nc(CC#N)nc2nc4c(c-3c12)CCCCCC4 [Compound 10, 2-(17-Methyl-15-oxo-8,9,10,11,12,13-hexahydro-15 H-3,14-dioxa-4,6,7-triazacycloocta[4,5]benzo[1,2,3-no]tetraphen-5-yl)acetonitrile] | 8.2 ± 1.04 (≈ 19.3 µM) | 8.9 ± 1.02 (≈ 21 µM) | 7.8 ± 0.1 (≈ 18.4 µM) | 5.8 ± 1.03 (≈ 13.7 µM) | very strong (1–10 (very strong)) | very strong (1–10 (very strong)) | very strong (1–10 (very strong)) |
| O=c1[nH]cc(F)c(=O)[nH]1 [Compound 5-Flu, 5-fluorouracil, reference compound] | 4 ± 0.04 (≈ 30.8 µM) | 3 ± 0.02 (≈ 23.1 µM) | 5.5 (≈ 42.3 µM) | 2.5 ± 1.03 (≈ 19.2 µM) | – | – | – |
| Cc1cc(=O)oc2c1ccc1oc(=N)c3c(=O)oc4c(c3c12)CCC4 [Compound 17, 3-Imino-7-methyl-3,11,12,13-tetrahydro-2 H,9 H-cyclopenta[5,6]pyrano[3,4-c]pyrano [2,3-f]chromene-2,9-dione] | 56.2 ± 1.06 (≈ 168 µM) | 52.5 ± 0.18 (≈ 157 µM) | 53.5 ± 0.1 (≈ 160 µM) | 40.2 ± 0.23 (≈ 120 µM) | – | – | – |
| Cc1cc(=O)oc2c3c(ccc12)Oc1nc(CC#N)nc2nc(N)c(C#N)c-3c12 [Compound 5, 2-amino-5-(cyanomethyl)-10-methyl-12-oxo-12 H-7,13-dioxa-3,4,6-triazabenzo[no]tetraphene-1-carbonitrile] | 31.2 ± 0.02 (≈ 81.6 µM) | 30 ± 1.01 (≈ 78.5 µM) | 27.5 ± 0.31 (≈ 71.9 µM) | 21.2 ± 1.22 (≈ 55.4 µM) | – | – | – |
| Cc1cc(=O)oc2c3c(ccc12)OC(N)=C1C(=O)NC2=C(CCC2)C13 (centres unmarked) [Compound 14, 3-Amino-7-methyl-10c,11,12,13-tetrahydro-9 H-cyclopenta[b]pyrano [2’,3’:5,6]chromeno [4,3-d]pyridine-2,9(1 H)-dione] | 58 ± 1.02 (≈ 172 µM) | 52 ± 0.01 (≈ 155 µM) | 56 ± 0.32 (≈ 166 µM) | 49 ± 1.22 (≈ 146 µM) | – | – | – |
| Cc1cc(=O)oc2c3c(ccc12)Oc1nc(CC#N)nc2nc4c(c-3c12)CCCCC4 [Compound 9, 2-(16-Methyl-14-oxo-9,10,11,12-tetrahydro-8 H,14 H-3,13-dioxa-4,6,7-triazacyclohepta[4,5]benzo[1,2,3-no]tetraphen-5-yl)acetonitrile] | 6.6 ± 0.02 (≈ 16.1 µM) | 7.2 ± 1.02 (≈ 17.5 µM) | 5.9 ± 0.03 (≈ 14.4 µM) | 5.4 ± 1.22 (≈ 13.2 µM) | very strong (1–10 (very strong)) | very strong (1–10 (very strong)) | very strong (1–10 (very strong)) |
| Cc1cc(=O)oc2c3c(ccc12)Oc1nc(CC#N)nc2nc4c(c-3c12)CCCC4 [Compound 8, 2-(15-Methyl-13-oxo-8,9,10,11-tetrahydro-13 H-3,12-dioxa-4,6,7-triazanaphtho[3,2,1-no]tetraphen-5-yl)acetonitrile] | 5.7 ± 0.06 (≈ 14.4 µM) | 5.1 ± 0.18 (≈ 12.9 µM) | 7.5 ± 0.01 (≈ 18.9 µM) | 4.9 ± 0.11 (≈ 12.4 µM) | very strong (1–10 (very strong)) | very strong (1–10 (very strong)) | very strong (1–10 (very strong)) |
| CCOC(=O)c1cc2c(ccc3c(C)cc(=O)oc32)oc1=O [Compound 18, Ethyl 4-methyl-2,8-dioxo-2 H,8 H-pyrano[2,3-f]chromene-9-carboxylate] | 66.5 ± 1.02 (≈ 221 µM) | 57 ± 1.23 (≈ 190 µM) | 60.4 ± 0.03 (≈ 201 µM) | 54 ± 0.22 (≈ 180 µM) | – | – | – |
| Cc1cc(=O)oc2c1ccc1oc(=N)c(C#N)cc12 [Compound 3, 8-imino-4-methyl-2-oxo-2 H,8 H-pyrano[2,3-f]chromene-9-carbonitrile] | 71.02 ± 0.05 (≈ 282 µM) | 70 ± 0.06 (≈ 278 µM) | 68.2 ± 0.07 (≈ 270 µM) | 59 ± 0.22 (≈ 234 µM) | – | – | – |
| Cc1cc(=O)oc2c3c(ccc12)Oc1nc(CC#N)nc2nc4c(c-3c12)CCC4 [Compound 7, 2-(14-Methyl-12-oxo-9,10-dihydro-8 H,12 H-3,11-dioxa-4,6,7-triazaindeno[6,5,4-no]tetraphen-5-yl)acetonitrile] | 11.5 ± 0.05 (≈ 30.1 µM) | 9.5 ± 0.04 (≈ 24.8 µM) | 9.9 ± 1.04 (≈ 25.9 µM) | 9.6 ± 1.22 (≈ 25.1 µM) | very strong (1–10 (very strong)) | very strong (1–10 (very strong)) | very strong (1–10 (very strong)) |
| Cc1cc(=O)oc2c1ccc1oc(=N)c(C(N)=O)cc12 [Compound 12, 8-Imino-4-methyl-2-oxo-2 H,8 H-pyrano[2,3-f]chromene-9-carboxamide] | 51.3 ± 1.05 (≈ 190 µM) | 49.4 ± 0.19 (≈ 183 µM) | 48.2 ± 1.04 (≈ 178 µM) | 37.5 ± 1.13 (≈ 139 µM) | – | – | – |
| Cc1cc(=O)oc2c3c(ccc12)Oc1nc(CC#N)nc2nc(-c4ccccc4)cc-3c12 [Compound 6, 2-(10-Methyl-12-oxo-2-phenyl-12 H-7,13-dioxa-3,4,6-triazabenzo[no]tetraphene-5-yl) acetonitrile] | 24.1 ± 0.19 (≈ 57.6 µM) | 22.5 ± 0.04 (≈ 53.8 µM) | 26 ± 0.21 (≈ 62.1 µM) | 19.1 ± 1.13 (≈ 45.6 µM) | – | – | – |
| Cc1cc(=O)oc2c1ccc1oc3nc(CC#N)nc(=N)c-3cc12 [Compound 4, 2-(11-Imino-4-methyl-2-oxo-2 H,11 H-pyrano[2’,3’:5,6]chromeno[2,3-d]pyrimidin-9-yl) acetonitrile] | 34.1 ± 0.15 (≈ 107 µM) | 31.4 ± 0.11 (≈ 98.7 µM) | 31 ± 0.01 (≈ 97.4 µM) | 24.5 ± 0.11 (≈ 77 µM) | – | – | – |
| CCOC(=O)c1cc2c(ccc3c(C)cc(=O)oc32)oc1=N [Compound 16, ethyl 8-imino-4-methyl-2-oxo-2 H,8 H-pyrano[2,3-f]chromene-9-carboxylate] | 57.5 ± 0.05 (≈ 192 µM) | 52.1 ± 0.04 (≈ 174 µM) | 59.3 ± 1.04 (≈ 198 µM) | 52.5 ± 1.22 (≈ 175 µM) | – | – | – |
| Cc1cc(=O)oc2c1ccc1oc(=O)c(C#N)cc12 [Compound 15, 4-Methyl-2,8-dioxo-2 H,8 H-pyrano[2,3-f]chromene-9-carbonitrile] | 40.3 ± 1.19 (≈ 159 µM) | 37.03 ± 0.04 (≈ 146 µM) | 38 ± 1.22 (≈ 150 µM) | 35.2 ± 1.13 (≈ 139 µM) | – | – | – |
| Cc1cc(=O)oc2c1ccc1[nH]c(=O)c(C#N)cc12 [Compound 11, 4-Methyl-2,8-dioxo-7,8-dihydro-2 H-pyrano[2,3-f]quinoline-9-carbonitrile] | 35.5 ± 0.01 (≈ 141 µM) | 33.3 ± 1.06 (≈ 132 µM) | 39.01 ± 0.07 (≈ 155 µM) | 32.2 ± 1.22 (≈ 128 µM) | – | – | – |
